Where only a bound is given, the exact number is not on record here.

Experiment [1] concerns Plasmodium falciparum. As to the kind of experiment: ST_JUDE: Plasmodium falciparum K1 EC50 (uM) as measured by SYBR green dye. Type of experiment: functional, organism-based.
The test system of experiment [2] is Plasmodium falciparum. Put plainly: ST_JUDE: Plasmodium falciparum 3D7 EC50 (uM) as measured by SYBR green dye. Type of experiment: functional, organism-based.

As to `CSc1nnc(-c2cccc([N+](=O)[O-])c2)n1Cc1ccccc1`, the values for the concentration giving a half-maximal response (EC50) in experiment [1] and in experiment [2] were 1.3 µM and 1.39 µM, respectively.
On the same counts, the results for `CCOc1cccc(C(=O)Nc2nonc2-c2ccc(OCC)c(OCC)c2)c1` are 0.217 µM and 0.169 µM.
On the same counts, the results for `CCOC(=O)c1ccc2nc(C)cc(Nc3ccc(N(C)C)cc3)c2c1` are 3.81 µM and 2.85 µM.
Turning to `O=C(CSc1nccn1-c1ccc([N+](=O)[O-])cc1)N1CCc2ccccc21`, the 50% effective concentration (EC50) in experiment [1] and in experiment [2] was over 15 µM in each case.
As for `COc1ccc(C)c2sc(N(Cc3cccnc3)C(=O)c3ccc(C#N)cc3)nc12`, the EC50 in experiment [1] and in experiment [2] was over 15 µM each time.
Take `Cc1cc(C)cc(Nc2nc(NCC3CCCO3)c3ccccc3n2)c1` (configuration not stated): the EC50 was determined as 1.79 µM in experiment [1] and 1.6 µM in experiment [2].
In the case of `CCOCC(=O)Nc1ccc(S(=O)(=O)N2CCC(c3nc4ccccc4[nH]3)CC2)cc1`, the concentration for a half-maximal effect (EC50) in experiment [1] and in experiment [2] was over 15 µM in each case.
For `COc1ccc(CCNC(=S)Nc2ccccc2SC)cc1OC`, the EC50 amounted to 4.3 µM in experiment [1] and 5.2 µM in experiment [2].
The corresponding values for `CCO/C(O)=C1\C(C)=NC2=C(C(=O)CC(c3ccccc3)C2)C1c1ccc(Cl)cc1` (configuration not stated) are 6.69 µM and 3.85 µM.
Regarding `CCCCCCCCc1c(C)c(C#N)c2nc3ccccc3n2c1-n1cnc2ccccc21`, the EC50 in experiment [1] and in experiment [2] was over 15 µM in each case.
For `COC(=O)c1c(S(=O)(=O)N2CCCCCC2)sc2c1CCN(Cc1ccc(F)c(OC)c1)C2`, the EC50 in experiment [1] and in experiment [2] was over 15 µM throughout.
As to `O=C1c2ccc3c4c(ccc(c24)C(=O)N1CCO)C(=O)N(CCO)C3=O`, the 50% effective concentration (EC50) was 2.7 µM in experiment [1] and over 15 µM in experiment [2].
Turning to `Cc1ccc(C(C)C)c(OCc2nc3ccccc3n2C)c1`, the half-maximal effective concentration (EC50) in experiment [1] and in experiment [2] was over 15 µM in each case.
For the compound `CC(C)(C)C(=O)Cn1ccc(=N)c2ccccc21`, the EC50 in experiment [1] and in experiment [2] was over 15 µM each time.
For `CCCc1cc(O)nc(-n2nc(C)cc2NC(=O)c2cc(C)cc(C)c2)n1`, the 50% effective concentration (EC50) in experiment [1] and in experiment [2] was over 15 µM in each case.
In the case of `CC(C)CCNCC(O)CON=C1c2ccccc2-c2ccccc21` (configuration not stated), the 50% effective concentration (EC50) was 0.735 µM in experiment [1] and 1.71 µM in experiment [2].
On the same counts, the results for `CCSCCN1C(=O)CSC1c1cnccc1-c1ccc(Br)cc1` (configuration not stated) are over 15 µM and 4.91 µM.
For the compound `O=C(Nc1ccc(Cl)c(Cl)c1)c1ccc(-c2ccccc2)cc1`, the EC50 in experiment [1] and in experiment [2] was over 15 µM each time.
As to `Cc1cccnc1Nc1nc(-c2ccccn2)cs1`, the concentration for a half-maximal effect (EC50) in experiment [1] came out at 1.32 µM; in experiment [2], 1.84 µM.
The corresponding values for `CCN1/C(=C/c2sc3ccccc3[n+]2CCO)C=Cc2cc(OC)ccc21` are 0.571 µM and 1.07 µM.
In the case of `CSc1ccccc1C(=O)Nc1nc(-c2ccccn2)cs1`, the EC50 was determined as 2.04 µM in experiment [1] and 6.82 µM in experiment [2].
On the same counts, the results for `CCOc1ccc(-c2nonc2NC(=O)c2ccccc2Cl)cc1OCC` are 0.538 µM and 0.49 µM.
On the same counts, the results for `CCOC(=O)c1c(NC(=S)NCCc2ccccc2)sc2c1CC(C)(C)OC2` are over 15 µM and over 15 µM.
The corresponding values for `CCN(CC)CCn1c(=N)n(CCOc2ccc(Cl)cc2Cl)c2ccccc21` are 7.48 µM and over 15 µM.
Turning to `C=CCOc1cccc(C(Nc2cc(C)ccn2)c2ccc3cccnc3c2O)c1` (configuration not stated), the EC50 in experiment [1] is 4.09 µM; in experiment [2], 3.17 µM.
On to `Oc1c(C(Nc2ccccn2)c2ccc(Cl)c(Cl)c2)ccc2cccnc12` (configuration not stated), for which the concentration for a half-maximal effect (EC50) in experiment [1] is 4.36 µM; in experiment [2], 1.34 µM.
`CC(=O)C1=C(c2ccc(Br)cc2)N(C(C)=O)n2cnnc2S1`: the EC50 in experiment [1] was 1.56 µM; in experiment [2], over 15 µM.
Turning to `CCC(=O)NC(c1ccc(OC)c(OC)c1)c1ccc2cccnc2c1O` (configuration not stated), the values for the EC50 in experiment [1] and in experiment [2] were 4.78 µM and 3.8 µM, respectively.
The corresponding values for `O=C(c1ccc(C(F)(F)F)cc1)N(Cc1ccc(OCc2ccc(F)cc2)cc1)Cc1cccnc1` are over 15 µM and over 15 µM.
On the same counts, the results for `Cc1cccc(-n2ccnc2SCC(=O)Nc2cccc(F)c2)c1C` are 7.99 µM and over 15 µM.
Take `CCCC1=Nc2cc(C(=O)N3CCN(C(=O)OCC)CC3)ccc2Sc2ccc(C)cc21`: the 50% effective concentration (EC50) in experiment [1] and in experiment [2] was over 15 µM throughout.
`COc1cccc(OC)c1CN1CCC(C(Cc2ccccc2F)N(C)C(=O)c2cccs2)CC1` (configuration not stated): the EC50 in experiment [1] was found to be 4.22 µM; in experiment [2] it was 7.28 µM.
`C[n+]1ccccc1/C=C1\Sc2ccccc2N1CCC(=O)O`: the values for the concentration giving a half-maximal response (EC50) in experiment [1] and in experiment [2] were 3.01 µM and 7.63 µM, respectively.
As to `CCCC(=O)NC(c1ccc(N(CC)CC)cc1)c1cc(Cl)c2cccnc2c1O` (configuration not stated), the 50% effective concentration (EC50) amounted to 1.14 µM in experiment [1] and 0.844 µM in experiment [2].
The corresponding values for `CCc1n(CC(O)COc2ccccc2OC)c2ccccc2[n+]1CC` (configuration not stated) are over 15 µM and over 15 µM.
Regarding `CC[N+](CC)(CC)CCCOC1CC(C)CCC1C(C)C` (configuration not stated), the EC50 in experiment [1] is 4.65 µM; in experiment [2] it was over 15 µM.
The corresponding values for `COc1cccc(NC(=O)Cn2c(C)c(C(=O)C(F)(F)F)c3ccccc32)c1` are 1.62 µM and over 15 µM.
The corresponding values for `O=C(Cc1ccccc1)NC(c1ccc(Cl)cc1)c1c(O)ccc2ccccc12` (configuration not stated) are over 15 µM and over 15 µM.
In the case of `O=C(NC(c1ccc([N+](=O)[O-])cc1)c1cc(Cl)c2cccnc2c1O)c1cccnc1` (configuration not stated), the EC50 was 1.52 µM in experiment [1] and 2.51 µM in experiment [2].
With `CC(C)(C)c1ccc(C(=O)Nc2c3c(nn2-c2cccc(Cl)c2)CSC3)cc1`, the concentration for a half-maximal effect (EC50) in experiment [1] and in experiment [2] was over 15 µM each time.
Take `O=C1C(Nc2cccc(F)c2)=C(N2CCCCC2)C(=O)c2ccccc21`: the EC50 in experiment [1] is 0.471 µM; in experiment [2] it was 0.261 µM.
With `CC[n+]1c(C=C2C=CN(C)C=C2)ccc2cc(OC)ccc21`, the EC50 in experiment [1] was 2.05 µM; in experiment [2] it was over 15 µM.
The corresponding values for `CCO/C(O)=C1\C(C)=NC2=C(C(=O)CC(C)(C)C2)C1c1ccc(Cl)cc1Cl` (configuration not stated) are 1.92 µM and 2.95 µM.
The corresponding values for `CC(=O)N(C1=C(N2CCOCC2)C(=O)c2ccccc2C1=O)c1ccc(F)cc1` are 0.548 µM and 0.51 µM.
Turning to `CCN(CC)CCNC(=O)c1c(C)oc2c1C(=O)c1ccccc1C2=O`, the half-maximal effective concentration (EC50) in experiment [1] is 0.191 µM; in experiment [2], 0.256 µM.
For `CCN(CC)CCOC(=O)c1ccc(NC(=O)c2cc3cc4cc(OC)ccc4nc3s2)cc1`, the 50% effective concentration (EC50) in experiment [1] came to 3.31 µM; in experiment [2], 1.7 µM.
In the case of `COCCn1/c(=N/C(=O)CSCC(=O)Nc2cc(C)on2)sc2cc(OC)ccc21`, the EC50 in experiment [1] and in experiment [2] was over 15 µM each time.
For `O=[N+]([O-])c1ccc(NC(=S)Nc2cc(C(F)(F)F)cc(C(F)(F)F)c2)cc1`, the half-maximal effective concentration (EC50) was determined as 0.631 µM in experiment [1] and 1.64 µM in experiment [2].
On the same counts, the results for `CCc1cccc(NC(=O)C2c3ccccc3C(=O)N(C3CCCC3)C2c2cccs2)c1` (configuration not stated) are 2.01 µM and 2.29 µM.
Regarding `Cc1ccc(C2CC(c3cccs3)=NN2C(=O)c2ccc(Br)o2)cc1` (configuration not stated), the EC50 in experiment [1] was over 15 µM; in experiment [2] it was 0.532 µM.
`COc1ccc2c(c1OC)C(=O)N1c3ccccc3N=C(c3ccc([N+](=O)[O-])cc3)CC21` (configuration not stated): the EC50 in experiment [1] and in experiment [2] was over 15 µM each time.
For `COc1cccc(NC2=C(N3CCCCC3)C(=O)c3ccccc3C2=O)c1`, the figures for the EC50 in experiment [1] and in experiment [2] were 0.153 µM and 0.052 µM, respectively.
The corresponding values for `COc1nc(N=C(N)N)nc2c(C)cccc12` are 3.41 µM and 2.42 µM.
For the compound `Cc1ccc(Oc2nc(-c3ccncc3)nc3ccccc23)cc1`, the EC50 in experiment [1] stood at 2.26 µM; in experiment [2] it was 3.48 µM.
On the same counts, the results for `COc1ccc(OC)c2sc(N(Cc3cccnc3)C(=O)c3cccc(F)c3)nc12` are 4.97 µM and 4.1 µM.
Consider `CCN(CC)c1ccc(C(NC(=O)C(C)C)c2ccc3cccnc3c2O)cc1` (configuration not stated), for which the EC50 was 5.82 µM in experiment [1] and 4.85 µM in experiment [2].
On the same counts, the results for `COc1ccc2c(=O)cc(C(Cl)(Cl)Cl)oc2c1` are 1.54 µM and over 15 µM.
On the same counts, the results for `Cc1ccc(OCC(=O)Nc2cc(C)nn2-c2nc(C)cc(O)n2)cc1` are over 15 µM and over 15 µM.
On the same counts, the results for `COc1cc(Cl)c(C)cc1NC(=O)C1c2ccccc2C(=O)N(CC(C)C)C1c1cccs1` (configuration not stated) are 0.226 µM and 0.166 µM.
In the case of `CCCCC(O)(c1ccc(Cl)cc1)C(CN1CCOCC1)c1ccc(Cl)cc1` (configuration not stated), the half-maximal effective concentration (EC50) amounted to 1.64 µM in experiment [1] and 4.01 µM in experiment [2].
As to `O=C(Nc1ccccc1-c1nc2ccccc2s1)C(Cl)(Cl)Cl`, the EC50 was 2.69 µM in experiment [1] and over 15 µM in experiment [2].
For the compound `CN(Cc1cccc(OCCNC(=O)c2ccc3c(c2)OCO3)c1)Cc1cccc2cccnc12`, the EC50 in experiment [1] and in experiment [2] was over 15 µM throughout.
`Cc1ccc(Nc2nc(N)c3ccccc3n2)cc1C`: the EC50 in experiment [1] came to 3.91 µM; in experiment [2], 1.33 µM.
The corresponding values for `CC(Cc1ccccc1)NCCCCCCCCCNC(C)Cc1ccccc1` (configuration not stated) are 1.17 µM and 3.76 µM.
With `CCOc1ccccc1CNC(=O)C1c2ccccc2C(=O)N(CC(C)C)C1c1cccs1` (configuration not stated), the values for the concentration for a half-maximal effect (EC50) in experiment [1] and in experiment [2] were 1.49 µM and 1.43 µM, respectively.
Take `Cc1n(C)c2ccccc2[n+]1CC(=O)c1ccc([N+](=O)[O-])cc1`: the EC50 amounted to 2.09 µM in experiment [1] and 1.61 µM in experiment [2].
The corresponding values for `COc1ccc(NC2=C(N3CCOCC3)C(=O)c3ccccc3C2=O)cc1` are 0.286 µM and over 15 µM.
With `COc1cccc2c(C)nc(N=C(N)N)nc12`, the EC50 in experiment [1] and in experiment [2] was over 15 µM in each case.
With `O=C(CCc1ccccc1)N(Cc1cccnc1)c1nc2ccc(F)cc2s1`, the concentration giving a half-maximal response (EC50) in experiment [1] and in experiment [2] was over 15 µM throughout.
On to `CN(C)c1ccc(Nc2nc(-c3cccnc3)nc3ccccc23)cc1`, for which the EC50 in experiment [1] was 5.08 µM; in experiment [2] it was over 15 µM.
With `Cc1ccc(C(NC(=O)CC(C)C)c2ccc3cccnc3c2O)cc1` (configuration not stated), the EC50 in experiment [1] and in experiment [2] was over 15 µM in each case.
